US20050158371A1, “Novel external agent” (Sumitomo Pharmaceuticals Co., Ltd., priority 2002, published 2005)

Assay: Serum concentration of leflunomide after transdermal or oral administration to adjuvant arthritis rats, LC-MS/MS (Experimental Example 5B)
Type: in vivo
Settings: rat, leflunomide in serum, single oral administration 20 mg/kg
Experimental: The dosage form for external application of leflunomide as shown in Example was administered once to adjuvant arthritis rats prepared in the same manner as in Experimental Example 1B and the concentration of leflunomide in serum was measured using LC-MS/MS. In addition, the concentration in serum on simultaneous oral administration of leflunomide once (20 mg/kg) was measured and compared.

- AUC(0-t) (read-out: AUC, area under the drug concentration-time curve [AUC(0−T)]): 600 ng·h/mL
- Cmax (read-out: Cmax, maximum drug concentration): 502 ng/mL
- Tmax (read-out: tmax, times to reach maximum drug concentration): 30 min
SMILES: Cc1oncc1C(=O)Nc1ccc(C(F)(F)F)cc1 [leflunomide, N-(4′-trifluoromethylphenyl)-5-methylisoxazole-4-carboxamide]
